Data taken from ChEMBL document CHEMBL3351883, “β-Agarofurans and Sesquiterpene Pyridine Alkaloids from Maytenus spinosa” (J Nat Prod, 2014).
The source made the active and inactive calls. The calls are words filed in the database; no cut-off is given here.

System: not listed separately
Assay: Cytotoxicity against human C8166 cells assessed as cell viability by MTT assay
Assay type: cell-based
Settings: read-out: Activity

| Structure (SMILES) | viability [%] |
| --- | --- |
| CC(=O)OC[C@]12[C@@H](OC(C)=O)[C@@H](OC(=O)c3ccccc3)[C@@H]3C[C@]1(OC3(C)C)[C@H](C)C[C@H](OC(C)=O)[C@@H]2OC(C)=O | 96 |

System: Human immunodeficiency virus 1
Assay: Antiviral activity against HIV1 infected in human C8166 cells after 72 hrs by p24 antigen based ELISA
Assay type: functional
Settings: not given

| Structure (SMILES) | inhibition | inhibition (INH) [%] |
| --- | --- | --- |
| CC(=O)OC[C@]12[C@H](OC(C)=O)[C@@H](OC(C)=O)[C@@H]3[C@@H](O)[C@@]14O[C@@]3(C)COC(=O)c1cnccc1CCC(C)C(=O)O[C@@H]([C@H](OC(C)=O)[C@@H]2OC(C)=O)[C@]4(C)O (stereo partly specified) | inactive |  |
| CC(=O)O[C@@H]1[C@H]2[C@@H](OC(=O)c3ccccc3)[C@@H](OC(=O)c3ccccc3)[C@]3(C)[C@@H](OC(C)=O)[C@@H](OC(=O)c4ccccc4)C[C@@H](C)[C@@]13OC2(C)C | inactive |  |
| CC(=O)OC[C@]12[C@H](OC(C)=O)[C@@H](OC(C)=O)[C@@H]3[C@@H](OC(C)=O)[C@@]14O[C@@]3(C)COC(=O)c1cnccc1CCC(C)C(=O)O[C@@H]([C@H](OC(C)=O)[C@@H]2OC(C)=O)[C@]4(C)O (stereo partly specified) | inactive |  |
| CC(=O)OC[C@@]12[C@H](OC(C)=O)[C@H](OC(C)=O)[C@@H]3[C@@H](OC(=O)c4ccccc4)[C@@]14O[C@@]3(C)COC(=O)c1cccnc1CC[C@H](C)C(=O)O[C@@H]([C@H](OC(C)=O)[C@@H]2OC(C)=O)[C@]4(C)O | inactive |  |
| CC(=O)OC[C@]12[C@H](OC(C)=O)[C@H](OC(C)=O)[C@@H]3[C@@H](OC(C)=O)[C@@]14O[C@@]3(C)COC(=O)c1cccnc1CCC(C)C(=O)O[C@@H]([C@H](OC(C)=O)[C@@H]2OC(C)=O)[C@]4(C)O (stereo partly specified) | inactive |  |
| CC(=O)OC[C@]12[C@H](OC(C)=O)[C@@H](OC(C)=O)[C@@H]3C(=O)[C@@]14O[C@@]3(C)COC(=O)c1cnccc1CCC(C)C(=O)O[C@@H]([C@H](OC(C)=O)[C@@H]2OC(C)=O)[C@]4(C)O (stereo partly specified) | inactive |  |
| CC(=O)OC[C@]12[C@H](OC(C)=O)C(=O)[C@@H]3[C@@H](OC(C)=O)[C@@]14O[C@@]3(C)COC(=O)c1ncccc1C[C@H](C)[C@H](C)C(=O)O[C@H]([C@@H](OC(C)=O)[C@@H]2OC(C)=O)[C@H]4C | inactive |  |
| CC(=O)OC[C@]12[C@H](OC(C)=O)[C@H](OC(C)=O)[C@@H]3[C@@H](OC(C)=O)[C@@]14O[C@@]3(C)COC(=O)c1cnccc1CCC(C)C(=O)O[C@@H]([C@H](OC(C)=O)[C@@H]2OC(C)=O)[C@]4(C)O (stereo partly specified) | inactive |  |
| CCC(C)C(=O)O[C@@H]1[C@@H]2[C@@H](OC(C)=O)[C@]3(OC2(C)C)[C@H](C)C[C@H](O)[C@H](OC(C)=O)[C@@]3(COC(C)=O)[C@@H]1OC(=O)c1ccccc1 (stereo partly specified) | inactive |  |
| CC(=O)OC[C@]12[C@H](OC(C)=O)[C@@H](OC(C)=O)[C@@H]3[C@@H](OC(=O)c4ccco4)[C@@]14O[C@@]3(C)COC(=O)c1cnccc1CCC(C)C(=O)O[C@@H]([C@H](OC(C)=O)[C@@H]2OC(C)=O)[C@]4(C)O (stereo partly specified) | inactive |  |
| CC(=O)O[C@@H]1[C@@H]2[C@@H](OC(C)=O)[C@]3(OC2(C)C)[C@H](C)C[C@H](O)[C@H](OC(C)=O)[C@@]3(C)[C@@H]1OC(=O)c1ccccc1 | inactive |  |
| CC(=O)OC[C@]12[C@@H](OC(C)=O)[C@@H](OC(=O)c3ccccc3)[C@@H]3C[C@]1(OC3(C)C)[C@H](C)C[C@H](OC(C)=O)[C@@H]2OC(C)=O |  | 64.4 |
| CC(=O)OC[C@]12[C@H](OC(C)=O)C(=O)[C@@H]3[C@@H](O)[C@@]14O[C@@]3(C)COC(=O)c1cnccc1CCC(C)C(=O)O[C@@H]([C@H](OC(C)=O)[C@@H]2OC(C)=O)[C@]4(C)O (stereo partly specified) | inactive |  |
| CC(=O)OC[C@]12[C@H](OC(C)=O)[C@@H](OC(C)=O)[C@@H]3[C@@H](OC(=O)c4cccnc4)[C@@]14O[C@@]3(C)COC(=O)c1cnccc1CCC(C)C(=O)O[C@@H]([C@H](OC(C)=O)[C@@H]2OC(C)=O)[C@]4(C)O (stereo partly specified) | inactive |  |
| CC(=O)OC[C@]12[C@H](OC(C)=O)[C@@H](OC(C)=O)[C@@H]3[C@@H](OC(=O)N(C)C)[C@@]14O[C@@]3(C)COC(=O)c1cnccc1CCC(C)C(=O)O[C@@H]([C@H](OC(C)=O)[C@@H]2OC(C)=O)[C@]4(C)O (stereo partly specified) | inactive |  |
| CC(=O)OC[C@]12[C@H](OC(C)=O)[C@H](OC(=O)c3ccccc3)[C@@H]3[C@@H](OC(C)=O)[C@]1(OC3(C)C)[C@H](C)C[C@H](OC(C)=O)[C@@H]2OC(C)=O | inactive |  |
| CC(=O)OC[C@]12[C@H](OC(=O)c3ccccc3)[C@@H](OC(C)=O)[C@@H]3[C@@H](OC(C)=O)[C@]1(OC3(C)C)[C@H](C)C[C@H](O)[C@@H]2OC(C)=O | inactive |  |
| CC(=O)OC[C@]12[C@H](OC(C)=O)[C@@H](O)[C@@H]3[C@@H](O)[C@@]14O[C@@]3(C)COC(=O)c1cnccc1CCC(C)C(=O)O[C@@H]([C@H](OC(C)=O)[C@@H]2OC(C)=O)[C@]4(C)O (stereo partly specified) | inactive |  |
| CCC(C)C(=O)O[C@@H]1[C@H](OC(C)=O)[C@@H]2[C@@H](OC(C)=O)[C@]3(OC2(C)C)[C@H](C)C[C@H](OC(C)=O)[C@H](OC(=O)c2ccccc2)[C@@]13C (stereo partly specified) | inactive |  |
| CC(=O)O[C@@H]1[C@H]2[C@@H](OC(=O)c3ccccc3)[C@@H](OC(=O)c3ccccc3)[C@]3(C)[C@@H](OC(C)=O)[C@@H](O)C[C@@H](C)[C@@]13OC2(C)C | inactive |  |
| CC(=O)O[C@@H]1[C@@H]2[C@@H](OC(C)=O)[C@]3(OC2(C)C)[C@H](C)C[C@H](OC(C)=O)[C@H](OC(=O)c2ccccc2)[C@@]3(C)[C@@H]1OC(C)=O | inactive |  |
| CC(=O)OC[C@]12[C@H](OC(C)=O)[C@@H](OC(C)=O)[C@@H]3[C@@H](OC(=O)c4ccc(Br)cc4)[C@@]14O[C@@]3(C)COC(=O)c1cnccc1CCC(C)C(=O)O[C@@H]([C@H](OC(C)=O)[C@@H]2OC(C)=O)[C@]4(C)O (stereo partly specified) | inactive |  |
| CCCCCCCCCCCC(=O)O[C@@H]1[C@H]2[C@H](OC(C)=O)[C@@H](OC(C)=O)[C@]3(COC(C)=O)[C@@H](OC(C)=O)[C@@H](OC(C)=O)[C@@H]4OC(=O)C(C)CCc5ccncc5C(=O)OC[C@]2(C)O[C@]13[C@@]4(C)O (stereo partly specified) | inactive |  |
| CC(=O)OC[C@]12[C@H](OC(=O)c3ccccc3)[C@H](OC(=O)c3ccccc3)[C@@H]3[C@@H](OC(C)=O)[C@]1(OC3(C)C)[C@H](C)C[C@H](O)[C@@H]2OC(C)=O | inactive |  |
| CC(=O)OC[C@]12[C@H](OC(C)=O)[C@@H](OC(C)=O)[C@@H]3[C@@H](OC(C)=O)[C@@]14O[C@@]3(C)COC(=O)c1cccnc1CCC(C)C(=O)O[C@@H]([C@H](OC(C)=O)[C@@H]2OC(C)=O)[C@]4(C)O (stereo partly specified) | inactive |  |
